Data taken from article PMC9995496, “A screen for MeCP2-TBL1 interaction inhibitors using a luminescence-based assay” (Scientific Reports, 2023).

target: T1, MeCP2-TBL1 interaction (MeCP2-SmBiT / TBL1-LgBiT) (Mus musculus, UniProt Q9QXE7); assay: MeCP2-TBL1 NanoLuc luciferase complementation assay (cell-free, extracts of transfected HEK293 cells); format: binding, human; settings: primary screen of Asinex library, single well per compound;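 note: each compound tested at 20 µM final concentration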
T1 construct: expressed in transfected cells; crude lysate used as a cell-free assay
T1 sequence (Q9QXE7 166-527): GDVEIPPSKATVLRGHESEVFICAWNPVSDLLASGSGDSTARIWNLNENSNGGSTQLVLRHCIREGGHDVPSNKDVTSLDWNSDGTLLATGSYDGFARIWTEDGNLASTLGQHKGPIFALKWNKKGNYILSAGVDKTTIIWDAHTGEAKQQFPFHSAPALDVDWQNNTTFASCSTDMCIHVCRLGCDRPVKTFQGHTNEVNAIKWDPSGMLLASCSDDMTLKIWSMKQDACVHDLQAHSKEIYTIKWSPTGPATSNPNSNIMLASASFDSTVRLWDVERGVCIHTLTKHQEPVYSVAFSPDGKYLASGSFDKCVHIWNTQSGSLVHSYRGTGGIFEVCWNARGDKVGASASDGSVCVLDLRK
Method in brief: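 Cell-free split NanoLuc: lysate of HEK293 cells co-expressing the MeCP2 C-terminal half-SmBiT and TBL1 WD domain-LgBiT, mixed 1:1 with furimazine. After 30 min at room temperature, luminescence was plate-median normalized.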

Compound	Inhibition percent
C[C@]12C[C@@H](Cc3ccccc3)N(CC(=O)NCc3ccccc3Cl)[C@H]1CCCC(=O)N2 [BDH_33626431]	6.92
C[C@]12C[C@@H](Cc3ccccc3)N(C(=O)CCNC(=O)c3cccnc3)[C@H]1CCCC(=O)N2 [BDG_33627395]	0.80
Cc1cnn(CC(=O)N2CCC3(CC2)Oc2ccc(Cl)cc2[C@H]2OCCC[C@@H]23)c1 [BDG_33900405]	5.31
CC1(C)Oc2c(cccc2C(F)(F)F)[C@@H]2O[C@@H]3CCN(C(=O)CCCc4cn[nH]c4)[C@@H]3C[C@H]21 [BDG_34130346]	7.09
CC(=O)c1ccc(NC(=O)CN2CCC[C@@H]3O[C@@H]4c5cc(Cl)ccc5OC(C)(C)[C@H]4C[C@@H]32)cc1 [BDG_51129056]	-1.84
CC(=O)NCCCCCC(=O)N1C[C@@H](c2ccc(F)cc2)[C@@]2(CCCCC(=O)N2)C1 [BDG_34131511]	3.80
CN1C(=O)N(CC(=O)N2CCCCC2CCNC(=O)c2ccccc2)C(=O)C12CCCCC2 (stereo not shown) [BDH_33629465]	1.86
O=C(c1ccc(Cc2ccc(F)cc2)nc1)N1CCCC2(CC1)CN(c1ccccc1)C(=O)O2 (stereo not shown) [BDH_32295955]	-2.84
CN(C)c1ccccc1C(=O)N(C)[C@H]1CC[C@@]2(CCO)C[C@H](c3ccccc3)C[C@](C)(O2)[C@@H]1O [BDH_33903744]	1.99
CN1CCC(c2c(C(=O)NCCS(=O)(=O)NC3CCCCC3)sc3ccccc23)C1 (stereo not shown) [BDD_24044260]	-0.05
CC(=O)N[C@H](CC(N)=O)C(=O)N1CC[C@@H]2O[C@@H]3c4ccccc4OC(C)(C)[C@H]3C[C@@H]2C1 [BDG_33905309]	0.54
Cc1cc(C)nc(NCCCC(=O)N2[C@H](Cc3ccccc3)C[C@]3(C)NC(=O)CCC[C@H]23)n1 [BDG_24639132]	-1.41

same assay, conditions: primary screen of the Asinex library, sheet "Sargen output Asinex library", one well per compound

Compound	Inhibition percent [%]
CC(=O)N[C@H]1C[C@@H](C(=O)N(C)C)N(CC(=O)NCc2ccc3[nH]c(C)c(C)c3c2)[C@H]1c1ccccc1 [BDH_33623462]	-0.84
CC(=O)N1CCC(c2nc3c(c(NCCOc4cccc(C)c4C)n2)CN(C)CC3)CC1 [BDE_25367865]	1.06
CNC(=O)c1cc(C)nc(C2(C)CCN(C(=O)c3ccc(C)c(NCc4ccccn4)c3)CC2)n1 [BDH_32371078]	4.95
COc1ccc(C2(C(=O)N3CCC(Cc4ccc5ncccc5c4)CC3)CCOCC2)cc1 [BDH_32344075]	-2.33
COc1ccc(CNC(=O)c2cnc(C)nc2C2CCCCN2C(=O)c2cnccn2)cc1 (stereo not shown) [BDC_23571437]	0.37
COc1ccc([C@@H]2C[C@]3(C)NC(=O)CCC[C@@H]3N2CC(=O)NCc2nc3ccccc3n2C)cc1 [BDH_33623015]	0.43
Cc1nccn1Cc1ccccc1C(=O)N1CCCC(c2cncc(Oc3ccccc3)n2)C1 (stereo not shown) [BDH_32364323]	-2.15
CC(=O)N[C@@]12CN(CC(=O)Nc3cc(C)ccc3F)CC[C@@H]1[C@@H](c1ccccc1)N(C(C)=O)C2 [BDH_33619769]	-1.76
O=C1CCCN1CCOc1ccccc1C(=O)N1CCCC(Cc2cn3ccnc3cn2)CC1 (stereo not shown) [BDH_32372856]	-2.49
COc1ccccc1Cc1ccc(C(=O)N2CCCC3(CC2)CN(c2ccccc2)C(=O)O3)cn1 (stereo not shown) [BDH_32296020]	-0.57
Cc1ccc2ncnc(NCCC(=O)N3CCCCC3c3cc(C(=O)NC4CCCC4)[nH]n3)c2c1 (stereo not shown) [BDE_33629308]	0.99
COc1ccc(C(=O)N2CCCC(Cc3cn4ccnc4cn3)CC2)cc1OCc1ccccn1 (stereo not shown) [BDH_32371251]	1.17
CC(=O)N1CCC2(C/C=C/C[C@H]3CN(C(=O)Cc4cccc(F)c4)CC[C@H]3NC(=O)CNC2=O)CC1 [BDH_33732909]	-2.58
NC(=O)C1CN(Cc2ccccc2)CCN1CC(=O)Nc1ccccc1C(F)(F)F (stereo not shown) [BDH_33617130]	-2.26
Cc1nonc1COc1ccccc1C(=O)N1CCCC(Cc2nccn3cccc23)CC1 (stereo not shown) [BDH_32360822]	2.59
COc1ccccc1[C@@H]1CN(Cc2cccc(Oc3ncccn3)c2)C[C@]12CCCCC(=O)N2 [BDH_32359781]	-0.97

same assay, conditions: primary screen of the Asinex library, sheet "Sargen output Asinex library", one well per compound, Batch Ref. 1

Compound	Inhibition percent [%]
O=C(CN1CCC(C2CCCCN2C(=O)C2CCN(Cc3ccccn3)CC2)CC1)N1CCCC1 (stereo not shown) [BDE_33629903]	-3.25
C[C@]12C[C@@H](Cc3ccccc3)N(C(=O)c3cccc(CN4CCCC4=O)c3)[C@H]1CCCC(=O)N2 [BDH_32374892]	-1.59
Cc1ccc2c(c1)OC1(CCN(Cc3cscn3)CC1)[C@H]1CCCO[C@H]21 [BDG_33900204]	4.69
COc1ccc(CN(C)[C@@H]2[C@@H](O)[C@H](Oc3cccc(F)c3)C[C@H]2NC(=O)CCC(N)=O)cc1 [BDI_34058033]	-0.09
COc1cc2c(cc1[C@H]1C[C@@H](NC(C)=O)CC3(CCCCC3)O1)OCCCO2 [BDH_33665894]	2.60
O=C(c1ccccc1Cn1ccnc1)N1CCCC(c2cccc(Cc3ccc(F)cc3)n2)C1 (stereo not shown) [BDH_32363926]	1.46
Cc1cc(O[C@@H]2C[C@@H](NC(=O)CCC(=O)O)[C@H](N3CCc4ccccc4C3)[C@H]2O)cc(C(C)C)c1 [BDG_34049574]	0.88
C[C@]12C[C@@H](Cc3ccccc3)N(C(=O)c3ccc(NCc4cccnc4)cc3)[C@H]1CCCC(=O)N2 [BDH_33630910]	7.42
Cc1nonc1COc1ccccc1C(=O)N1CCCC(Cc2ccc3ccncc3c2)CC1 (stereo not shown) [BDH_32355894]	5.62
COc1ccc([C@@H]2C[C@]3(C)NC(=O)CCC[C@@H]3N2CC(=O)Nc2ccc(OC(F)F)cc2)cc1 [BDH_33624459]	-1.08
CC(C)(O)[C@@H]1CC[C@](C)([C@H]2CC3(CCN(C(=O)c4ccc(-c5ccc(S(C)(=O)=O)cc5)cc4)CC3)CO2)O1 [BDH_33696510]	0.0118
C=CCC1(CC=C)CCN1C(=O)C1(Cc2ccc(-c3cccnc3)cc2)CCOCC1 [BDC_20667788]	-1.31
COc1ccccc1Cc1cnc(C2CCCCN2C(=O)Cn2ncc3ccccc3c2=O)o1 (stereo not shown) [BDE_33513118]	1.49
Cn1c(=O)c2c(ncn2CCC(=O)N2[C@H](Cc3ccccc3)C[C@]3(C)NC(=O)CCC[C@H]23)n(C)c1=O [BDH_33628646]	0.10
Cc1nnc(N2CCC(C3CC=CCN(Cc4ccc(F)cc4)C3=O)CC2)c2ccccc12 (stereo not shown) [BDE_24723072]	-0.22
COc1ccc([C@@H]2C[C@]3(C)NC(=O)CCC[C@@H]3N2CC(=O)Nc2cccc(F)c2)cc1 [BDH_33626152]	-3.72
O=C(c1ccccc1Cn1ccnc1)N1CCCC(c2cncc(Oc3ccccc3)n2)C1 (stereo not shown) [BDH_32338420]	3.75
Cc1cccc(CC(=O)N2CCC(Cc3cccc(-c4cccnc4)c3)(C(N)=O)CC2)c1 [BDC_22461702]	-2.13
CN(CCOc1ccccc1)C(=O)c1c(O)ccc2c1O[C@@H]1C[C@H]3C[C@H](C3(C)C)[C@]1(O)[C@H]2O [BDG_33899827]	2.70
Cc1c(F)cccc1NC(=O)CN1[C@H](Cc2ccccc2)C[C@]2(C)NC(=O)CCC[C@H]12 [BDH_24639961]	0.80
COc1ccc([C@@H]2C[C@]3(C)NC(=O)CCC[C@@H]3N2CC(=O)Nc2ccc(C)c(F)c2)cc1 [BDH_33625783]	2.77
